Measured values published in patent publication US9428462B2, “4-[-2-[[5-methyl-1-(2-naphthalenyl)-1H-pyrazol-3-yl]oxy]ethyl]morpholine hydrochloride amorphous solid forms” (priority 2010, dated 2016).

Key:
Assay type in all cases: physicochemical
[1] = 1H NMR check of the stability of the salt in amorphous form samples; settings: several samples of the amorphous form, CDCl3
Procedure: In addition, several samples of the amorphous form obtained were analyzed by ^1H NMR in order to check the stability of the salt (FIG. 2 is a ^1H NMR spectrum of the amorphous phase).
Proton nuclear magnetic resonance analyses were recorded in deuterated chloroform (CDCl3) in a Bruker Avance 400 Ultrashield NMR spectrometer, equipped with a z-gradient 5 mm BBO (Broadband Observe) probe with ATM and an automatic BACS-120 autosampler. Spectra were acquired solving 2-10 mg of sample in 0.6 mL of deuterated solvent.

[2] = Drying experiments of the amorphous phase for four hours at different temperatures, solid analyzed by PXRD; settings: for Solid phase after drying: PXRD
Procedure: (§1) Approximately 20 mg of the non manipulated samples were prepared in standard sample holders using two foils of polyacetate.
(§2) Powder diffraction patterns were acquired on a D8 Advance Series 2Theta/Theta powder diffraction system using CuKα-radiation in transmission geometry (Wavelength: 1.54060 Å). The system was equipped with a VANTEC-1 single photon counting PSD, a Germanium monochromator, a ninety positions auto changer sample stage, fixed divergence slits and radial soller. Programs used: Data collection with DIFFRAC plus XRD Commander V.2.5.1 and evaluation with EVA V.12.0.
In order to test the stability of the amorphous phase and to investigate its stability, different portions of the amorphous phase were dried for four hours at different temperatures (table 5). Once the samples were dried the solid was analyzed by PXRD.

[3] = Drying experiments of the amorphous phase under vacuum (5-7 mbar) at different temperatures and times, solid analyzed by PXRD; settings: for Solid phase after drying under vacuum: PXRD
Procedure: as §1, §2
In a second experiment, different portions of the amorphous phase were dried under vacuum conditions (5-7 mbar) at room temperature, 40° C. and 60° C. for different times (4, 8, 16 and 24 hours; table 6). Once the samples were dried, the solid was analyzed by PXRD. […] In the experiments performed at 40° C. the amorphous phase began to crystallize after 16 hours. In the experiments performed at 60° C. the amorphous phase began to crystallize after 8 hours and phase I could be clearly identified after 16 hours.

Cc1cc(OCCN2CCOCC2)nn1-c1ccc2ccccc2c1.Cl [amorphous phase, 4-[2-[[5-methyl-1-(2-naphthalenyl)-1H-pyrazol-3-yl]oxy]ethyl]morpholine hydrochloride]
Stability of the salt by 1H NMR [1]: no signs of the lost of HCl or decomposition of the samples could be observed
Solid phase after drying ([2]; Sample 1: dried four hours at rt): amorphous
Solid phase after drying ([2]; Sample 2: dried four hours at 40 °C): amorphous
Solid phase after drying ([2]; Sample 3: dried four hours at 50 °C): amorphous
Solid phase after drying ([2]; Sample 4: dried four hours at 60 °C): amorphous
Solid phase after drying ([2]; Sample 5: dried four hours at 80 °C): amorphous + crystalline
Solid phase after drying ([2]; Sample 6: dried four hours at 90 °C): amorphous + crystalline
Solid phase after drying ([2]; Sample 7: dried four hours at 100 °C): phase I + crystalline
Solid phase after drying ([2]; Sample 8: dried four hours at 110 °C): phase I
Solid phase after drying ([2]; Sample 9: dried four hours at 120 °C): phase I
Stability of the amorphous phase on drying ([2]; four hours at temperature higher than 100° C.): transformed clearly to phase I
Stability of the amorphous phase on drying ([2]; temperatures over 60° C., four hours): transformed slightly to a crystalline phase, not clearly identified
Stability of the amorphous phase on drying ([2]; temperatures up to 60° C. for four hours): amorphous phase was recovered
Solid phase after drying under vacuum ([3]; Sample 10: vacuum 5-7 mbar, 23° C., 4 hours): amorphous
Solid phase after drying under vacuum ([3]; Sample 11: vacuum 5-7 mbar, 23° C., 8 hours): amorphous
Solid phase after drying under vacuum ([3]; Sample 12: vacuum 5-7 mbar, 23° C., 16 hours): amorphous
Solid phase after drying under vacuum ([3]; Sample 13: vacuum 5-7 mbar, 23° C., 24 hours): amorphous
Solid phase after drying under vacuum ([3]; Sample 14: vacuum 5-7 mbar, 40° C., 4 hours): amorphous
Solid phase after drying under vacuum ([3]; Sample 15: vacuum 5-7 mbar, 40° C., 8 hours): amorphous
Solid phase after drying under vacuum ([3]; Sample 16: vacuum 5-7 mbar, 40° C., 16 hours): amorphous + phase I
Solid phase after drying under vacuum ([3]; Sample 17: vacuum 5-7 mbar, 40° C., 24 hours): amorphous + phase I
Solid phase after drying under vacuum ([3]; Sample 18: vacuum 5-7 mbar, 60° C., 4 hours): amorphous
Solid phase after drying under vacuum ([3]; Sample 19: vacuum 5-7 mbar, 60° C., 8 hours): amorphous + phase I
Solid phase after drying under vacuum ([3]; Sample 20: vacuum 5-7 mbar, 60° C., 16 hours): phase I
Solid phase after drying under vacuum ([3]; Sample 21: vacuum 5-7 mbar, 60° C., 24 hours): phase I
Time after which the amorphous phase began to crystallize ([3]; vacuum 5-7 mbar, 40° C.): 16 h
Time after which phase I could be clearly identified ([3]; vacuum 5-7 mbar, 60° C.): 16 h
Time after which the amorphous phase began to crystallize ([3]; vacuum 5-7 mbar, 60° C.): 8 h
Stability of the amorphous phase on drying under vacuum ([3]; vacuum 5-7 mbar, room temperature, up to 24 hours): did not change after drying
